From US20240165104A1, “TREATMENT OF DEPRESSION” (priority 2021, published 2024)
Counter-ions that a name gives are not always drawn. Like-named read-outs stand apart in the source and are kept apart here.

Assays:
Plasma protein binding = assay type: in vitro ADME; conditions: plasma
[1] = system: patients with treatment resistant depression (TRD); experiment: Phase 3 randomized double-blind active controlled trial of DM/BU in treatment resistant depression (Example 1); assay type: in vivo, human
Text: Inclusion criteria for the open-label period included males or females 18-65 years of age, a history of inadequate response to 1 or 2 prior antidepressant treatments, established by the Antidepressant Treatment Response Questionnaire (ATRQ), and a Hamilton Depression Rating Scale (HAMD-17) total score of ≥18. Inclusion criteria for the double-blind period included inadequate response to 2 or 3 prior antidepressant treatments, including open-label period failure. Exclusion criteria included a history of electroconvulsive therapy, vagus nerve stimulation, transcranial magnetic stimulation or any experimental central nervous system treatment during the current episode or in the past 6 months, schizophrenia, bipolar disorder, obsessive compulsive disorder, psychiatric symptoms secondary to any other general medical condition.
The change in depressive symptoms over time was measured using the Montgomery-Åsberg Depression Rating Scale (MADRS) and the Quick Inventory of Depressive Symptomatology-Self-Rated (QIDS-SR-16). The primary endpoint was the change from baseline in the MADRS after 6 weeks of treatment. The key secondary endpoints were the change from baseline in the MADRS after 1 week of treatment, after 2 weeks of treatment, the average change over entire 6-week double-blind treatment period, and the Sheehan Disability Scale (SDS). Other pre-specified secondary efficacy variables included the Cognitive subscale of the Massachusetts General Hospital Cognitive and Physical Functioning Questionnaire (CPFQ), and the Hamilton Anxiety Scale (HAM-A).

[2] = system: treatment-adherent patients with treatment-resistant depression; experiment: Analysis of treatment-adherent patients of the Phase 3 trial (Example 2); conditions: both, human, in vivo, 6 weeks
Protocol: It was discovered in this study that measurement of plasma drug concentrations is a direct method of assessing treatment adherence.
(§1) In the patients of Example 1, plasma samples were collected after up to 6 weeks of treatment in the clinical trial (end of treatment visit) and analyzed.
(§2) The selected drug concentration cutoffs approximate the lowest observed concentrations 24 hours after the last dose of the study drug under 100% adherent conditions. The 15 ng/mL threshold at 24 hours after the last dose corresponds to a plasma concentration of about 19 ng/mL at about 12 hours after a dose that is administered after steady state has been achieved (e.g., day 42).
Other efficacy assessments included Quick Inventory Depressive Symptoms-Self Report (QIDS-SR-16), Hamilton Anxiety Rating Scale, and Cognition and Physical Functioning Questionnaire (CPFQ).
Demographics and baseline characteristics were similar across both treatment groups.

[3] = Plasma drug concentration cutoffs for treatment adherence; conditions: human, in vivo
Protocol: as §1, §2

[4] = Solubility of the drug powder in water
[5] = Pharmacokinetics after administration of the subject combination; conditions: for accumulation ratio at steady state based on AUC0-12 / accumulation ratio at steady state based on Cmax: given as the subject combination; for AUC0-12 of metabolite relative to that of bupropion / Cmax of metabolite relative to peak level of bupropion: after administration of the subject combination; for apparent elimination half-life (metabolites): in vivo
plasma protein = experiment: Plasma protein binding; assay type: in vitro ADME; conditions: metabolites of bupropion
[6] = subject combination administered with food

Compound: CC(NC(C)(C)C)C(=O)c1cccc(Cl)c1.Cl (racemic) [bupropion, (±)-1-(3-chlorophenyl)-2-[(1,1-dimethylethyl)amino]-1-propanone hydrochloride]
- fraction unbound (Plasma protein binding): 0.16
- rate of remission from depression (QIDS-SR-16≤5) at Week 6 ([1]; % of patients, p=0.012): 8.2%
- rate of discontinuation due to adverse events ([1]; both, human, in vivo, 6 weeks): 1.9%
- MADRS mean reduction averaged over the entire 6-week treatment period ([1]; key secondary endpoint, DM/BU n=154, bupropion n=155, p=0.031): 6.7
- MADRS mean reduction at Week 1 ([1]; key secondary endpoint, p=0.02): 3.6
- MADRS mean reduction at Week 2 ([1]; key secondary endpoint, p=0.035): 6.1
- QIDS-SR-16 mean reduction averaged over the entire 6-week treatment period ([1]; p=0.013): 2.3
- MADRS mean reduction at Week 6 ([1]; primary endpoint, p=0.117, did not reach statistical significance): 9.4
- Blood pressure increased [2]: 0 (0.0%)
- Dizziness [2]: 0 (0.0%)
- Dry mouth [2]: 3 (2.3%)
- Headache [2]: 6 (4.5%)
- Nasopharyngitis [2]: 0 (0.0%)
- Nausea [2]: 2 (1.5%)
- Somnolence [2]: 2 (1.5%)
- rate of discontinuation due to adverse events [2]: 0.8%
- concentration at 24 h [3]: ~10 ng/mL
- solubility in water [4]: highly soluble in water
- accumulation ratio at steady state based on AUC0-12 [5]: 1.5
- accumulation ratio at steady state based on Cmax [5]: 1.1
- Tmax ([5]; human, plasma, oral): ~2 h
- increase of AUC0-12 with food [5, 6]: 6%
- increase of Cmax with food [5, 6]: 3%

Compound: COc1ccc2c(c1)[C@]13CCCC[C@@H]1[C@H](C2)N(C)CC3 [dextromethorphan, morphinan, 3-methoxy-17-methyl-, (9α, 13α, 14α), hydrobromide monohydrate]
- concentration at 12 h ([3]; dose administered after steady state (e.g., day 42), read-out: corresponding plasma concentration at about 12 hours after a dose): ~19 ng/mL
- concentration at 24 h ([3]; under 100% adherent conditions, read-out: plasma concentration cutoff approximating the lowest observed concentration 24 hours after the last dose): ~15 ng/mL
- solubility in water [4]: sparingly soluble in water
- increase of mean elimination half-life as compared to dextromethorphan given without bupropion ([5]; following 8 days of the subject combination, extensive metabolizers): approximately 3 fold
- accumulation ratio at steady state based on AUC0-12 [5]: about 32
- accumulation ratio at steady state based on Cmax [5]: about 20
- change of Cmax with food [5, 6]: unchanged
- decrease of AUC0-12 with food [5, 6]: 14%

Compound: CC(NC(C)(C)C)C(O)c1cccc(Cl)c1 (centres unmarked) [erythrohydroxybupropion]
- AUC0-12 of metabolite relative to that of bupropion [5]: about 1.2 times
- Cmax of metabolite relative to peak level of bupropion [5]: approximately equal to
- apparent elimination half-life (metabolites) ([5]; human): ~44 h

Compound: C[C@H]1NC(C)(C)CO[C@]1(O)c1cccc(Cl)c1 [hydroxybupropion]
- AUC0-12 of metabolite relative to that of bupropion [5]: about 19 times
- Cmax of metabolite relative to peak level of bupropion [5]: approximately 14 times
- apparent elimination half-life (metabolites) ([5]; human): approximately 35 hours

Compound: C[C@H](NC(C)(C)C)[C@@H](O)c1cccc(Cl)c1 [threohydroxybupropion]
- extent of protein binding compared with bupropion (plasma protein): about half that seen with bupropion
- AUC0-12 of metabolite relative to that of bupropion [5]: about 7 times
- Cmax of metabolite relative to peak level of bupropion [5]: about 5 times
- apparent elimination half-life (metabolites) ([5]; human): ~33 h
